Measurements taken from patent US20230331685A1, “HERBICIDAL COMPOUNDS AND METHODS OF USE THEREOF” (AG Plenus Ltd, priority 2020, published 2023).

Legend:
Type in all cases: in vivo
Abutilon theophrasti = experiment: LTP pre-emergence greenhouse test; conditions: Dosage 2000 g/ha
Experimental: (§1) A basic panel of 8 weed species (Table 3) were sowed in 4×4×7 cm plastic pots containing inert sand (Sweet sand), intensively washed using osmosis water. Each specie was sowed in a separate pot. In each pot 10-15 seeds were sowed according to the specie viability. Sowing was performed one day before application. The plants were grown for 21 days in a controlled greenhouse (26±2° C. day 20±2° C. night). Hood irrigation (tap water+Shefer 5:3:8 8 mM) was given at a 50% water content by weight. Compounds were soluble in water (DDW), and commercial herbicide control was soluble in formulation B (Table 4). Application was conducted with an industrial sprayer (TeeJet 6502E nozzle) at a rate of 2 kg/ha and spray volume of […]. Pre-emergence advanced dose response experiment application was conducted at six rates between 1-0.0312 kg/ha and spray volume of […]. Percentage of emergence was evaluated at 15 DAA. Visual phenotyping was recorded using a scale of 0-6 (0: no visible effect, 6: maximum effect) at 18 DAA. All experiments included an untreated control, a solvent control and a positive control (commercial herbicide A.I.). […] Statistical analysis for plant emergence determined by % emergence ≥50 and T test (pval≤0.05), as well as Wilcox test (pval≤0.05).

Alopecurus myosuroides [1] = experiment: LTP pre-emergence greenhouse test; conditions: Dosage 2000 g/ha
Experimental: as §1

Amaranthus palmeri [2] = experiment: LTP pre-emergence greenhouse test; conditions: Dosage 2000 g/ha
Experimental: as §1

Ambrosia artemisiifolia = experiment: LTP pre-emergence greenhouse test; conditions: Dosage 2000 g/ha
Experimental: as §1

Arabidopsis thaliana [3] = experiment: LTP pre-emergence greenhouse test; conditions: Dosage 2000 g/ha
Experimental: as §1

Eragrostis tef = experiment: LTP pre-emergence greenhouse test; conditions: Dosage 2000 g/ha
Experimental: as §1

Lolium perenne = experiment: LTP pre-emergence greenhouse test; conditions: Dosage 2000 g/ha
Experimental: as §1

Matricaria chamomilla = experiment: LTP pre-emergence greenhouse test; conditions: Dosage 2000 g/ha
Experimental: as §1

Phalaris paradoxa = experiment: LTP pre-emergence greenhouse test; conditions: Dosage 2000 g/ha
Experimental: as §1

Poa annua = experiment: LTP pre-emergence greenhouse test; conditions: Dosage 2000 g/ha
Experimental: as §1

Setaria viridis = experiment: LTP pre-emergence greenhouse test; conditions: Dosage 2000 g/ha
Experimental: as §1

Sinapis alba = experiment: LTP pre-emergence greenhouse test; conditions: Dosage 2000 g/ha
Experimental: as §1

Phalaris minor = experiment: LTP post-emergence greenhouse test; conditions: Dosage 2000 g/ha
Alopecurus myosuroides [4] = experiment: LTP post-emergence greenhouse test; conditions: Dosage 2000 g/ha
Stellaria media = experiment: LTP post-emergence greenhouse test; conditions: Dosage 2000 g/ha
Amaranthus palmeri [5] = experiment: LTP post-emergence greenhouse test; conditions: Dosage 2000 g/ha
Arabidopsis thaliana [6] = experiment: HTPS post-emergence application on miniature dicot model plant
Experimental: The plates were placed in a controlled greenhouse in a random order inside a bath which allows flooding irrigation with tap water supplemented with a fertilizer. Applied compounds were dissolved into a final solution of 50% acetone, 49.9% DDW, 0.1% tween-20. A 96 well plate was used as a stock plate for preparing application solutions for 8 repeats. Each row contained different concentrations per chemical. Maximal concentration for application was 1.5 Kg/Ha and dilution factor is 2.5. Chemical application was performed one day after thinning out in a chemical hood. […] applied on first two true leaves in each well using 12 channel pipettes. Data collection: RGB (red, green, blue) data for green area per well was documented using camera. Data is collected at a few time points during the experiment: one day after thinning and before chemical application, two-, six- or nine-days post application. During the last two documentations, visual phenotyping was performed. Data analysis: Given RGB results and visual phenotype scores, a student t-test conducted to compare between treatment and control performance for continuous data (RGB) and Fisher exact test to analyze the non-continuous data (phenotypic scores). Dose-Response curves are generated for each treatment to infer ED50 and max. inhibition parameters, using treatment's log concentration range as the […] variable and normalized green area. Plate imaging performed at 11 and 18 DAA. RGB data for green area per well was documented and used to extract % inhibition. Dose-Response curves were built for each treatment to infer EC50, EC75 and EC90 parameters, using treatment's log concentration range as the independent variable and normalized green area as the dependent variable. Treatments were compared to controls performance given RGB results and using student's t-test (p-val≤0.05). Compounds 104-154 were applied in either or both pre- and post-emergence mode to either or both monocot and dicot model plants, following the methods described above. The compounds were applied as a gradient of concentrations as listed above, from which the ED50 was calculated.

With `C[C@@H](O)[C@@H](N)CCCCC(=O)O` [Compound 104, (6S,7R)-6-amino-7-hydroxyoctanoic acid] the “Herbicidal activity (In-planta), LTP-Pre emergence, Abutilon theophrasti” value (Abutilon theophrasti) was 60-80, the “Herbicidal activity (In-planta), LTP-Pre emergence, Alopecurus myosuroides” value (Alopecurus myosuroides [1]) was 40 and the “Herbicidal activity (In-planta), LTP-Pre emergence, Amaranthus palmeri” value (Amaranthus palmeri [2]) was 80. The “Herbicidal activity (In-planta), LTP-Pre emergence, Ambrosia artemisiifolia” value (Ambrosia artemisiifolia) was 0, the “Herbicidal activity (In-planta), LTP-Pre emergence, Arabidopsis thaliana” value (Arabidopsis thaliana [3]) was 40-80 and the “Herbicidal activity (In-planta), LTP-Pre emergence, Eragrostis tef” value (Eragrostis tef) was 100. For the same compound, the “Herbicidal activity (In-planta), LTP-Pre emergence, Lolium perenne” value (Lolium perenne) was 80, the “Herbicidal activity (In-planta), LTP-Pre emergence, Matricaria chamomilla” value (Matricaria chamomilla) was 80 and the “Herbicidal activity (In-planta), LTP-Pre emergence, Phalaris paradoxa” value (Phalaris paradoxa) was 60. For the same compound, the “Herbicidal activity (In-planta), LTP-Pre emergence, Poa annua” value (Poa annua) was 100, the “Herbicidal activity (In-planta), LTP-Pre emergence, Setaria viridis” value (Setaria viridis) was 100 and the “Herbicidal activity (In-planta), LTP-Pre emergence, Sinapis alba” value (Sinapis alba) was 40-60. For the same compound, the “Herbicidal activity (In-planta), LTP-Post emergence, Phalaris minor” value (Phalaris minor) was 20-30, the “Herbicidal activity (In-planta), LTP-Post emergence, Alopecurus myosuroides” value (Alopecurus myosuroides [4]) was 95 and the “Herbicidal activity (In-planta), LTP-Post emergence, Stellaria media” value (Stellaria media) was 95. For the same compound, the “Herbicidal activity (In-planta), LTP-Post emergence, Amaranthus palmeri” value (Amaranthus palmeri [5]) was 90, the Emax (Arabidopsis thaliana [6]; Arabidopsis thaliana, post-emergence, green area (RGB), read-out: Max Inhibition (%)) was 100% and the “ED50 (g/ha)” value (Arabidopsis thaliana [6]; dose-response of normalized green area) was 0.2 g/ha.
